Tested on: participants with SCD
Assay: Preliminary blood analysis of SCD patients given oral Compound I, 300 mg QD for 14 days then 200 mg QD through Week 12 (Part A Sub Study 2);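 as to Bilirubin total: values in mg/dL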
Format: in vivo, human
Experimental: Part A of this study is a Phase 2 randomized, open-label, dose-finding study in approximately 60 adult participants with SCD. The primary objective of Part A of this study is to assess the effects of Compound I in adult participants with SCD as measured by change in hemoglobin.
Participants are screened for eligibility in the study from Day −28 through Day −1. Eligible participants are randomized on Day 1 based on a 1:1 (100 mg: 150 mg) allocation and will receive their initial dose (loading dose) of Compound I. After completion of Day 1 assessments and subsequent loading doses, participants will continue with administration of their maintenance dose daily through Week 12.
Some newly enrolled participants in Part A will receive a loading dose regimen of 300 mg of Compound I once daily over the first 14 days. Participants will then receive 200 mg once daily maintenance doses through Week 12.

Absolute neutrophil (Patient A, Day 1, Day 0 (screening) 1.7): 2.2 K/μL
Alkaline phosphatase (Patient A, Day 1, Day 0 (screening) 143.5): 152.7 IU/L
Platelet count (Patient A, Day 1, Day 0 (screening) 148): 219 K/μL
Absolute neutrophil (Patient A, Day 15, Day 0 (screening) 1.7): 2.2 K/μL
Alkaline phosphatase (Patient A, Day 15, Day 0 (screening) 143.5): 156.7 IU/L
Platelet count (Patient A, Day 15, Day 0 (screening) 148): 239 K/μL
Absolute neutrophil (Patient A, Day 29, Day 0 (screening) 1.7): 0.5 K/μL
Platelet count (Patient A, Day 29, Day 0 (screening) 148): 211 K/μL
Absolute neutrophil (Patient A, Day 43, Day 0 (screening) 1.7): 0.6 K/μL
Alkaline phosphatase (Patient A, Day 43, Day 0 (screening) 143.5): 160.8 IU/L
Platelet count (Patient A, Day 43, Day 0 (screening) 148): 249 K/μL
Absolute neutrophil (Patient A, Day 57, Day 0 (screening) 1.7): 3.5 K/μL
Alkaline phosphatase (Patient A, Day 57, Day 0 (screening) 143.5): 198.2 IU/L
Platelet count (Patient A, Day 57, Day 0 (screening) 148): 153 K/μL
Absolute neutrophil (Patient A, Day 85, Day 0 (screening) 1.7): 1.1 K/μL
Alkaline phosphatase (Patient A, Day 85, Day 0 (screening) 143.5): 150.6 IU/L
Platelet count (Patient A, Day 85, Day 0 (screening) 148): 146 K/μL
Absolute neutrophil (Patient B, Day 1, Day 0 (screening) 6.9): 7.3 K/μL
Alkaline phosphatase (Patient B, Day 1, Day 0 (screening) 49.3): 52.4 IU/L
Platelet count (Patient B, Day 1, Day 0 (screening) 360): 344 K/μL
Absolute neutrophil (Patient B, Day 8, Day 0 (screening) 6.9): 4.1 K/μL
Alkaline phosphatase (Patient B, Day 8, Day 0 (screening) 49.3): 58.5 IU/L
Platelet count (Patient B, Day 8, Day 0 (screening) 360): 411 K/μL
Absolute neutrophil (Patient B, Day 29, Day 0 (screening) 6.9): 4.1 K/μL
Alkaline phosphatase (Patient B, Day 29, Day 0 (screening) 49.3): 67.6 IU/L
Platelet count (Patient B, Day 29, Day 0 (screening) 360): 333 K/μL
Absolute neutrophil (Patient B, Day 43, Day 0 (screening) 6.9): 3.7 K/μL
SMILES: O=Cc1c(O)cccc1OC[C@@H]1COCCN1C(=O)c1cccnc1CCO [Compound I, (S)-2-hydroxy-6-((4-(2-(2-hydroxyethyl)nicotinoyl)morpholin-3-yl)methoxy)benzaldehyde]
Bilirubin direct (Patient A, Day 1, Day 0 (screening) 0.48): <0.01 mg/dL
Reticulocytes (Patient A, Day 1, Day 0 (screening) 2.2): 5.2%
Bilirubin total (Patient A, Day 1, Day 0 (screening) 2.4): 2.16 mg/dL
Hemoglobin (HGB) (Patient A, Day 1, Day 0 (screening) 7.0): 8.8 g/dL
Hematocrit (HCT) (Patient A, Day 1, Day 0 (screening) 20.4): 25.1%
Alanine Aminotransferase (ALT) (Patient A, Day 1, Day 0 (screening) 26.1): 28.2 IU/L
Aspartate Aminotransferase (AST) (Patient A, Day 1, Day 0 (screening) 56.0): 60.0 IU/L
Lactate dehydrogenase (LDH) (Patient A, Day 1, Day 0 (screening) 358): 339 IU/L
Bilirubin direct (Patient A, Day 15, Day 0 (screening) 0.48): <0.01 mg/dL
Reticulocytes (Patient A, Day 15, Day 0 (screening) 2.2): 3.0%
Bilirubin total (Patient A, Day 15, Day 0 (screening) 2.4): 1.06 mg/dL
Hemoglobin (HGB) (Patient A, Day 15, Day 0 (screening) 7.0): 10.6 g/dL
Hematocrit (HCT) (Patient A, Day 15, Day 0 (screening) 20.4): 30.9%
Alanine Aminotransferase (ALT) (Patient A, Day 15, Day 0 (screening) 26.1): 26.1 IU/L
Aspartate Aminotransferase (AST) (Patient A, Day 15, Day 0 (screening) 56.0): 43.1 IU/L
Lactate dehydrogenase (LDH) (Patient A, Day 15, Day 0 (screening) 358): 243 IU/L
Reticulocytes (Patient A, Day 29, Day 0 (screening) 2.2): 2.0%
Hemoglobin (HGB) (Patient A, Day 29, Day 0 (screening) 7.0): 12.2 g/dL
Hematocrit (HCT) (Patient A, Day 29, Day 0 (screening) 20.4): 35.9%
Bilirubin direct (Patient A, Day 43, Day 0 (screening) 0.48): 0.28 mg/dL
Bilirubin indirect (Patient A, Day 43, Day 0 (screening) 1.92): 0.78 mg/dL
Reticulocytes (Patient A, Day 43, Day 0 (screening) 2.2): 1.5%
Bilirubin total (Patient A, Day 43, Day 0 (screening) 2.4): 1.06 mg/dL
Hemoglobin (HGB) (Patient A, Day 43, Day 0 (screening) 7.0): 14.9 g/dL
Hematocrit (HCT) (Patient A, Day 43, Day 0 (screening) 20.4): 43.3%
Alanine Aminotransferase (ALT) (Patient A, Day 43, Day 0 (screening) 26.1): 28.9 IU/L
Aspartate Aminotransferase (AST) (Patient A, Day 43, Day 0 (screening) 56.0): 44.1 IU/L
Lactate dehydrogenase (LDH) (Patient A, Day 43, Day 0 (screening) 358): 193 IU/L
Bilirubin direct (Patient A, Day 57, Day 0 (screening) 0.48): 0.38 mg/dL
Bilirubin indirect (Patient A, Day 57, Day 0 (screening) 1.92): 2.39 mg/dL
Reticulocytes (Patient A, Day 57, Day 0 (screening) 2.2): 0.1%
Bilirubin total (Patient A, Day 57, Day 0 (screening) 2.4): 2.77 mg/dL
Hemoglobin (HGB) (Patient A, Day 57, Day 0 (screening) 7.0): 12.4 g/dL
Hematocrit (HCT) (Patient A, Day 57, Day 0 (screening) 20.4): 36.3%
Alanine Aminotransferase (ALT) (Patient A, Day 57, Day 0 (screening) 26.1): 66.6 IU/L
Aspartate Aminotransferase (AST) (Patient A, Day 57, Day 0 (screening) 56.0): 82.9 IU/L
Lactate dehydrogenase (LDH) (Patient A, Day 57, Day 0 (screening) 358): 345 IU/L
Bilirubin direct (Patient A, Day 85, Day 0 (screening) 0.48): 0.08 mg/dL
Bilirubin indirect (Patient A, Day 85, Day 0 (screening) 1.92): 2.81 mg/dL
Reticulocytes (Patient A, Day 85, Day 0 (screening) 2.2): 5.2%
Bilirubin total (Patient A, Day 85, Day 0 (screening) 2.4): 2.89 mg/dL
Hemoglobin (HGB) (Patient A, Day 85, Day 0 (screening) 7.0): 11.0 g/dL
Hematocrit (HCT) (Patient A, Day 85, Day 0 (screening) 20.4): 31.0%
Alanine Aminotransferase (ALT) (Patient A, Day 85, Day 0 (screening) 26.1): 28.2 IU/L
Aspartate Aminotransferase (AST) (Patient A, Day 85, Day 0 (screening) 56.0): 54.0 IU/L
Lactate dehydrogenase (LDH) (Patient A, Day 85, Day 0 (screening) 358): 354 IU/L
Bilirubin direct (Patient B, Day 1, Day 0 (screening) 0.18): 0.18 mg/dL
Bilirubin indirect (Patient B, Day 1, Day 0 (screening) 4.66): 4.17 mg/dL
Bilirubin total (Patient B, Day 1, Day 0 (screening) 4.84): 4.35 mg/dL
Hemoglobin (HGB) (Patient B, Day 1, Day 0 (screening) 8.3): 8.5 g/dL
Reticulocytes (Patient B, Day 1, Day 0 (screening) 11.5): 9.5%
Alanine Aminotransferase (ALT) (Patient B, Day 1, Day 0 (screening) 22.0): 22.0 IU/L
Hematocrit (HCT) (Patient B, Day 1, Day 0 (screening) 23.5): 24.7%
Aspartate Aminotransferase (AST) (Patient B, Day 1, Day 0 (screening) 41.1): 39.1 IU/L
Lactate dehydrogenase (LDH) (Patient B, Day 1, Day 0 (screening) 371): 351 IU/L
Bilirubin direct (Patient B, Day 8, Day 0 (screening) 0.18): 0.08 mg/dL
Bilirubin indirect (Patient B, Day 8, Day 0 (screening) 4.66): 2.32 mg/dL
Bilirubin total (Patient B, Day 8, Day 0 (screening) 4.84): 2.4 mg/dL
Hemoglobin (HGB) (Patient B, Day 8, Day 0 (screening) 8.3): 11.2 g/dL
Reticulocytes (Patient B, Day 8, Day 0 (screening) 11.5): 5.4%
Alanine Aminotransferase (ALT) (Patient B, Day 8, Day 0 (screening) 22.0): 21.3 IU/L
Hematocrit (HCT) (Patient B, Day 8, Day 0 (screening) 23.5): 33.1%
Aspartate Aminotransferase (AST) (Patient B, Day 8, Day 0 (screening) 41.1): 42.1 IU/L
Lactate dehydrogenase (LDH) (Patient B, Day 8, Day 0 (screening) 371): 385 IU/L
Bilirubin direct (Patient B, Day 29, Day 0 (screening) 0.18): 0.18 mg/dL
Bilirubin indirect (Patient B, Day 29, Day 0 (screening) 4.66): 0.88 mg/dL
Bilirubin total (Patient B, Day 29, Day 0 (screening) 4.84): 1.06 mg/dL
Hemoglobin (HGB) (Patient B, Day 29, Day 0 (screening) 8.3): 14.4 g/dL
Reticulocytes (Patient B, Day 29, Day 0 (screening) 11.5): 1.2%
Alanine Aminotransferase (ALT) (Patient B, Day 29, Day 0 (screening) 22.0): 17.2 IU/L
Hematocrit (HCT) (Patient B, Day 29, Day 0 (screening) 23.5): 42.8%
Aspartate Aminotransferase (AST) (Patient B, Day 29, Day 0 (screening) 41.1): 29.1 IU/L
Lactate dehydrogenase (LDH) (Patient B, Day 29, Day 0 (screening) 371): 195 IU/L
Bilirubin direct (Patient B, Day 43, Day 0 (screening) 0.18): 0.18 mg/dL
Bilirubin indirect (Patient B, Day 43, Day 0 (screening) 4.66): 0.51 mg/dL
Bilirubin total (Patient B, Day 43, Day 0 (screening) 4.84): 0.69 mg/dL
Hemoglobin (HGB) (Patient B, Day 43, Day 0 (screening) 8.3): 15.2 g/dL
Reticulocytes (Patient B, Day 43, Day 0 (screening) 11.5): 0.8%
Alanine Aminotransferase (ALT) (Patient B, Day 43, Day 0 (screening) 22.0): 16.5 IU/L

— patent publication US20260306503A1, “(S)-2-HYDROXY-6-((4-(2-(2-HYDROXYETHYL)NICOTINOYL)MORPHOLIN-3-YL)METHOXY)BENZALDEHYD FOR USE IN THE TREATMENT OF SICKLE CELL DISEASE” (Global Blood Therapeutics, Inc., priority 2023, published 2026)
